Assay results reported in paper PMC12827894, “Structure-guided design of picomolar-level macrocyclic TRPC5 channel inhibitors with antidepressant activity” (Acta Pharmaceutica Sinica. B, 2025).
Read-outs that look alike come from different tables or passages of the source.

Tests used:
CB1 = target: T1, CB1 (Homo sapiens, UniProt P21554); assay: cell-based; type: cell-based
T1 construct: purchased ICE Bioscience ICESTP™ SafetyOne44 Panel

C57BL/6 mice = assay: Tail suspension test (TST); type: in vivo
TRPC5 [1] = target: T2, TRPC5 (Homo sapiens, UniProt Q9UL62); assay: Whole-cell patch-clamp, TRPC5, Ca2+-activated condition; type: cell-based; settings: read-out: IC50, TRPC5, endogenous Ca2+-evoked activation
T2 sequence (Q9UL62 1-973): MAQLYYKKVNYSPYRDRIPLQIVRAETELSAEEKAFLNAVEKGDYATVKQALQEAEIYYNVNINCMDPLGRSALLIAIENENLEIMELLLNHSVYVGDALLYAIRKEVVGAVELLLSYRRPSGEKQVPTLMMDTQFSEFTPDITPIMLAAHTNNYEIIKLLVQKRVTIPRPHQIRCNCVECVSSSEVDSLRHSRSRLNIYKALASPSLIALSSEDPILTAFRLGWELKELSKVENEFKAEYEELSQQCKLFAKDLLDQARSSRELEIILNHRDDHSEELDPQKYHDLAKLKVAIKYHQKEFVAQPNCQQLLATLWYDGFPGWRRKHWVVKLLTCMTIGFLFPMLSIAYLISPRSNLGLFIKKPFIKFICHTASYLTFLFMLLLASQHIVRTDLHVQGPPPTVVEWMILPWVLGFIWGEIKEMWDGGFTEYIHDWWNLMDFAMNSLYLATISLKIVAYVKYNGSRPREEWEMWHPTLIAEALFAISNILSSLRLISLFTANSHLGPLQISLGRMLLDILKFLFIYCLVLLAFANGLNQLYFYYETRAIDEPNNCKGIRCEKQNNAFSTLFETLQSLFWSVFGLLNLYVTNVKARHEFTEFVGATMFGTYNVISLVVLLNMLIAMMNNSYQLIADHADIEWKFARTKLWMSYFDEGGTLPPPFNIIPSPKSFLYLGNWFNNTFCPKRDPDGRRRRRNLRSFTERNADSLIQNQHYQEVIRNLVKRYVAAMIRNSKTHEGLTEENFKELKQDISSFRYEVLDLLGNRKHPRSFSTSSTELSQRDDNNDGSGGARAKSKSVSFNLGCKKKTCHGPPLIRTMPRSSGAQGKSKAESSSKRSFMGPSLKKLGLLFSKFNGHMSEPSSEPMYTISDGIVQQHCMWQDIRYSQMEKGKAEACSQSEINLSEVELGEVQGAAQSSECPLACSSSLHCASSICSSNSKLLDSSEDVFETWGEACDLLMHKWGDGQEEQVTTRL

DAT = target: T3, DAT (Homo sapiens, UniProt Q01959); assay: SafetyOne44 panel: DAT; type: cell-based; settings: 10 μmol/L, read-out: Antagonist JDIC-127 @10 μmol/L
T3 construct: purchased ICE Bioscience ICESTP™ SafetyOne44 Panel

NET = target: T4, NET (Homo sapiens, UniProt P23975); assay: SafetyOne44 panel: NET; type: cell-based; settings: NET, 10 μmol/L; read-out: Antagonist JDIC-127 @10 μmol/L
T4 construct: ICE Bioscience ICESTP SafetyOne44 Panel

NR1/NR2B = target: T5, NR1/NR2B (Homo sapiens, UniProt Q05586+Q13224); assay: SafetyOne44 panel ion channels: NR1/NR2B; type: cell-based; settings: NR1/NR2B, 5 μmol/L
T5 construct: ICE Bioscience ICESTP SafetyOne44 Panel

PDE4 D2 = target: T6, PDE4 D2 (Homo sapiens, UniProt Q08499); assay: biochemical; settings: PDE4D2, 10 μmol/L; read-out: Antagonist JDIC-127 @10 μmol/L
T6 construct: purchased ICE Bioscience ICESTP™ SafetyOne44 Panel

GR = target: T7, GR (Homo sapiens, UniProt P04150); assay: SafetyOne44 panel: GR; type: cell-based
T7 construct: purchased ICE Bioscience ICESTP™ SafetyOne44 Panel

C57BL/6J mice = assay: m-CPP-induced anxiety model, open field test; type: in vivo; settings: 10 mg/kg p.o.
TRPC5 [2] = target: T2, TRPC5; assay: cell-based
5-HT2B = target: T8, 5-HT2B (Homo sapiens, UniProt P41595); assay: cell-based; type: cell-based; settings: 5-HT2B, 10 μmol/L
T8 construct: purchased ICE Bioscience ICESTP SafetyOne44 Panel

M1 = target: T9, M1 (Homo sapiens, UniProt P11229); assay: cell-based; type: cell-based
T9 construct: purchased ICE Bioscience ICESTP SafetyOne44 Panel

H2 = target: T10, H2 (Homo sapiens, UniProt P25021); assay: SafetyOne44 panel: H2; type: cell-based; settings: 10 μmol/L
T10 construct: purchased ICE Bioscience ICESTP™ SafetyOne44 Panel

β1 = target: T11, β1 (Homo sapiens, UniProt P08588); assay: SafetyOne44 panel: β1; type: cell-based
T11 construct: purchased ICE Bioscience ICESTP™ SafetyOne44 Panel

TRPC6 = TRPC6 (Homo sapiens, UniProt Q9Y210); assay: Patch-clamp selectivity, TRPC6; type: cell-based; settings: 1 μmol/L
TRPC3 = TRPC3 (Homo sapiens, UniProt Q13507); assay: Patch-clamp selectivity, TRPC3; type: cell-based; settings: 1 μmol/L
A2A = target: T12, A2A (Homo sapiens, UniProt P29274); type: cell-based
T12 construct: purchased ICE Bioscience ICESTP SafetyOne44 Panel
T12 sequence (P29274 whole entry): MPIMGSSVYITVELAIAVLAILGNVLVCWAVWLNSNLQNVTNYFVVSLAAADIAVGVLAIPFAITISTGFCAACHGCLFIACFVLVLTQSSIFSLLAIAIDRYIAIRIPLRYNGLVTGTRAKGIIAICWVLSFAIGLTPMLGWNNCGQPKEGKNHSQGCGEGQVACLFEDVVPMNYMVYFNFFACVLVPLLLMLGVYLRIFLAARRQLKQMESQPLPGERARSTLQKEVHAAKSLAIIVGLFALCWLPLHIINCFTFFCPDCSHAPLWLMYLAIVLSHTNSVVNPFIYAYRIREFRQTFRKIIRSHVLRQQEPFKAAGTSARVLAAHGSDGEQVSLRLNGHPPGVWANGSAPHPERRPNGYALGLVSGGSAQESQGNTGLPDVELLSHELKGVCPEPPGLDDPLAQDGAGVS

T9 sequence (P11229 whole entry): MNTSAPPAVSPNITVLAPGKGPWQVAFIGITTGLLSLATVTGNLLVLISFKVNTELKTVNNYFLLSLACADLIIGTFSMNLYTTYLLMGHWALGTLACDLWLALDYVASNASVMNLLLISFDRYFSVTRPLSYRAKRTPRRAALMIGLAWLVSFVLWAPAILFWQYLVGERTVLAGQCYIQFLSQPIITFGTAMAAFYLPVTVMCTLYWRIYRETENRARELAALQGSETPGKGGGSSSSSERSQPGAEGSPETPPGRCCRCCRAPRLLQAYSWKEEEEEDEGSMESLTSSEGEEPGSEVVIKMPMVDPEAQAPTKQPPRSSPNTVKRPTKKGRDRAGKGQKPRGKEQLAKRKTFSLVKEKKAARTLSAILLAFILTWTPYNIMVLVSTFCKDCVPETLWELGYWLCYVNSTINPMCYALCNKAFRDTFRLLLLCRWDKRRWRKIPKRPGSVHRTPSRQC
T10 sequence (P25021 whole entry): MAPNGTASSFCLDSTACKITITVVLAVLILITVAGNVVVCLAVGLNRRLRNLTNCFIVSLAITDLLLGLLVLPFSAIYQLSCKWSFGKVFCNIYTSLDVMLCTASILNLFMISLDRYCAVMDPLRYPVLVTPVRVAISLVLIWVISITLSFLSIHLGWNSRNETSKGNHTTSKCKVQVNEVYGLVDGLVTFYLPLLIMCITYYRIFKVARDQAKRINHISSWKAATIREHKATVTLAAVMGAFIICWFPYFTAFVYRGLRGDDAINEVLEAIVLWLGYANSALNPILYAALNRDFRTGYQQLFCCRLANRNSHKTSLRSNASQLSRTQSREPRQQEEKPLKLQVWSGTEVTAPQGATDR
T11 sequence (P08588 whole entry): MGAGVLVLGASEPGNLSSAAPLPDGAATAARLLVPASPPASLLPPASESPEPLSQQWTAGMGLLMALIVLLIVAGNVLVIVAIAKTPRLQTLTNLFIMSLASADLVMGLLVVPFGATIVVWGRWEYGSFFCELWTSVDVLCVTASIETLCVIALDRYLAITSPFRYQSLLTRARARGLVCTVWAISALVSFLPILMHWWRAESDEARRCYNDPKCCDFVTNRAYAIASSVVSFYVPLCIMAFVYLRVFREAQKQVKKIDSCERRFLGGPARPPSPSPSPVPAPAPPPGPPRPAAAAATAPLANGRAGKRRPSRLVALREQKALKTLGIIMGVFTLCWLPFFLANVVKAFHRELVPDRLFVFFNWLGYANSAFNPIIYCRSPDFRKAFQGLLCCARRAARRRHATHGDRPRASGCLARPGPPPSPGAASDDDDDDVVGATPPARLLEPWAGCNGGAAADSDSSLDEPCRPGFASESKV
T7 sequence (P04150 whole entry): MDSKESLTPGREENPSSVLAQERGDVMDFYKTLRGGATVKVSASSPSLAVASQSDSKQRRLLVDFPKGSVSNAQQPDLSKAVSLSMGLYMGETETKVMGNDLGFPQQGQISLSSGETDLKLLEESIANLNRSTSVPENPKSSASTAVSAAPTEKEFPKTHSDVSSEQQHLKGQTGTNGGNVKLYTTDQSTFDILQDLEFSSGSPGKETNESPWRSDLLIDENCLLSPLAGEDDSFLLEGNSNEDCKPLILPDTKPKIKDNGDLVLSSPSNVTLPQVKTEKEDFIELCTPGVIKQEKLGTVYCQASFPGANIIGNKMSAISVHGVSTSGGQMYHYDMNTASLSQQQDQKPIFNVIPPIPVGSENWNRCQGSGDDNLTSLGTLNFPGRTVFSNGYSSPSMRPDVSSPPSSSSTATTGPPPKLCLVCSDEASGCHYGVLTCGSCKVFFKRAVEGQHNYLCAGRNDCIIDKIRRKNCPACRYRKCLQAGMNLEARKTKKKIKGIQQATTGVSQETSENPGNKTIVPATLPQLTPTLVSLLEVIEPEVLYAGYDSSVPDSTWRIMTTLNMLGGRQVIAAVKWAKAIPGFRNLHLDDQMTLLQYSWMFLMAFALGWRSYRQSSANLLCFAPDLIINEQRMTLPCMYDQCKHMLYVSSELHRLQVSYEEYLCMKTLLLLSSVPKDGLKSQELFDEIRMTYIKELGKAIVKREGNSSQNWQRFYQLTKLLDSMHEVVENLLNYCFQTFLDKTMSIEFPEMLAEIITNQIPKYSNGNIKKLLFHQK
T8 sequence (P41595 whole entry): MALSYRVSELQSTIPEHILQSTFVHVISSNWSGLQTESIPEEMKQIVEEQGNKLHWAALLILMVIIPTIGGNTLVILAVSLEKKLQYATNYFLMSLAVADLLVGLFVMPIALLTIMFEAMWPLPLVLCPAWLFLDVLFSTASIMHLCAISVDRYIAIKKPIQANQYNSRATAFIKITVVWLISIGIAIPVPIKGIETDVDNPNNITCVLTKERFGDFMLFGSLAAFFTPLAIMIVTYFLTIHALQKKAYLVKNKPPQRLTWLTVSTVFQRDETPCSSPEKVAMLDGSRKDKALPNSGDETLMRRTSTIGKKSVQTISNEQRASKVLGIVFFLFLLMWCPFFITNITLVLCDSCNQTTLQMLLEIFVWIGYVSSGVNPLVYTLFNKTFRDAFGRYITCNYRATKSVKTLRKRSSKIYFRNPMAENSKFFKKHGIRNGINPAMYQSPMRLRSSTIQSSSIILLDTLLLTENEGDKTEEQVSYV
T1 sequence (P21554 whole entry): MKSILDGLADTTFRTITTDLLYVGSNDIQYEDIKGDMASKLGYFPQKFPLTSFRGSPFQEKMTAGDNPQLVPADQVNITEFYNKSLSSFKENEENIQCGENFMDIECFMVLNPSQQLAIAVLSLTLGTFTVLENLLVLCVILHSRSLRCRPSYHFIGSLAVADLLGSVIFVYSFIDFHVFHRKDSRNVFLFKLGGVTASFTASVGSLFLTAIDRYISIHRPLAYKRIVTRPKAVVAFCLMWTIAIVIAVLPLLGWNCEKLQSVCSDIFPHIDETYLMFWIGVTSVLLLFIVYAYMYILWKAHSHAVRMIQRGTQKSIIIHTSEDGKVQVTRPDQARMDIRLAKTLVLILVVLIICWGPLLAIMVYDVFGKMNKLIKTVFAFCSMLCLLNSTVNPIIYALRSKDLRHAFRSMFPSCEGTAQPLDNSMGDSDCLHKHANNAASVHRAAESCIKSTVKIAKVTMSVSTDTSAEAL
T5 sequence (Q13224 27-1484, other chains not shown): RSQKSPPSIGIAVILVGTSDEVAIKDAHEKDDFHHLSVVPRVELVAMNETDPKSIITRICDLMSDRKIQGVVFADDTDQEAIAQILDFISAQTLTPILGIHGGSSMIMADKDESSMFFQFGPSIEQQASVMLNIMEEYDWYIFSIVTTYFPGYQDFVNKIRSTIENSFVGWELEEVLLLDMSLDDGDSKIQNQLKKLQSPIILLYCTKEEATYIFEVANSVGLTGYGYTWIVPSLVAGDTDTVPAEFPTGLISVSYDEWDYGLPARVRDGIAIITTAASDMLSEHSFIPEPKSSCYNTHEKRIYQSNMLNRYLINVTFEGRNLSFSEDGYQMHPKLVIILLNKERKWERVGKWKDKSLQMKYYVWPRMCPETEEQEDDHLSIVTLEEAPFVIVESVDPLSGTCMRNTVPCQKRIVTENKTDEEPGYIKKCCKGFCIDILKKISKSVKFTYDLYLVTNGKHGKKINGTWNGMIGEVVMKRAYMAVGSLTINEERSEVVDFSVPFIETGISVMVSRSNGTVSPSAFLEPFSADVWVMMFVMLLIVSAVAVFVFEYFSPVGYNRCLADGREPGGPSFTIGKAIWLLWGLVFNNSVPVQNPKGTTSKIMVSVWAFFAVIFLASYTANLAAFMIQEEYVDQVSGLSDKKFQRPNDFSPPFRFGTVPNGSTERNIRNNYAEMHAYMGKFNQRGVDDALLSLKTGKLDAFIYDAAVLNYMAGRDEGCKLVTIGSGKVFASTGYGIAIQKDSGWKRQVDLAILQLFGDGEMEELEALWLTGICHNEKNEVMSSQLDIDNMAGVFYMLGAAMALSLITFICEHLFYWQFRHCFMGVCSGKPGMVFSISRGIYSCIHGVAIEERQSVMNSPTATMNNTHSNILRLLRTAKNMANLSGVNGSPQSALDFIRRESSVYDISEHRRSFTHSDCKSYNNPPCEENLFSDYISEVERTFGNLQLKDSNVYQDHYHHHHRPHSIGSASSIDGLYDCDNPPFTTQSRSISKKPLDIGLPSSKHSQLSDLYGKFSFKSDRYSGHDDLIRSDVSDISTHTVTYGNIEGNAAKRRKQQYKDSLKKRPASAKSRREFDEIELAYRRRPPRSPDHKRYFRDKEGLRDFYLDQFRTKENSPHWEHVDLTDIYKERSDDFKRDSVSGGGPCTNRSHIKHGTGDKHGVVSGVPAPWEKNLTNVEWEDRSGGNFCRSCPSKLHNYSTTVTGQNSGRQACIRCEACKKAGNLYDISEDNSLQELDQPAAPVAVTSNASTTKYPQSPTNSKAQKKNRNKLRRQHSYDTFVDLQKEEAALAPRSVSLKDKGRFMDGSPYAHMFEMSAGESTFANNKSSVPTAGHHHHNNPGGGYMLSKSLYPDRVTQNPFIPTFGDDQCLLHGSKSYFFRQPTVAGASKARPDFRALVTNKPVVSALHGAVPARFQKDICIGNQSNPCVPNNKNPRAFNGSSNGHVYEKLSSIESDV

O=c1c2c3nc(n2Cc2ccc(Cl)cc2)Oc2ccc(F)c(c2)OCCCCCCn3c(=O)n1CCCO [JDIC-127]
Agonist JDIC-127 @10 μmol/L (CB1; CB1, agonist mode): 33.32% | inhibition at 10 µM (CB1; CB1, antagonist mode, 10 μmol/L, read-out: Antagonist JDIC-127 @10 μmol/L): -9.83% | efficacy in TST relative to reference drugs (C57BL/6 mice; 0.3 mg/kg p.o. vs 10 mg/kg desipramine, 3 mg/kg HC-070): comparable efficacy to desipramine and HC-070 | immobility time in TST (C57BL/6 mice; 0.3 or 3 mg/kg p.o., 60 min prior to testing): significantly reduced | IC50 (TRPC5 [1]): 1.4 pM | Cbr (i.v., 2 mg/kg, 2 min): 407.01 nmol/kg | Cpl (i.v., 2 mg/kg, 2 min): 367.10 nmol/L | Cbr (i.v., 2 mg/kg, 45 min): 198.65 nmol/kg | Cpl (i.v., 2 mg/kg, 45 min): 51.63 nmol/L | Cbr (i.v., 2 mg/kg, 180 min): 74.96 nmol/kg | Cpl (i.v., 2 mg/kg, 180 min): 10.12 nmol/L | Cbr (p.o., 10 mg/kg, 2 min): 22.16 nmol/kg | Cpl (p.o., 10 mg/kg, 2 min): 6.36 nmol/L | Cbr (p.o., 10 mg/kg, 45 min): 223.33 nmol/kg | Cpl (p.o., 10 mg/kg, 45 min): 88.83 nmol/L | Cbr (p.o., 10 mg/kg, 180 min): 7.35 nmol/kg | Cpl (p.o., 10 mg/kg, 180 min): 22.96 nmol/L | inhibition at 10 µM (DAT): -57.6% | inhibition at 10 µM (NET): -5.84% | Agonist JDIC-127 @ 5 μmol/L (NR1/NR2B; agonist mode): 1.53% | Antagonist JDIC-127 @5 μmol/L (NR1/NR2B; antagonist mode): 17.19% | inhibition at 10 µM (PDE4 D2): 11.4% | Agonist JDIC-127 @10 μmol/L (GR; agonist mode): 0.05% | inhibition at 10 µM (GR; antagonist mode, 10 μmol/L, read-out: Antagonist JDIC-127 @10 μmol/L): 4.73% | number of entries into the central area, OFT (C57BL/6J mice): significantly increased | IC50 (TRPC5 [2]; HEK293T, 100 nmol/L Englerin A, read-out: IC50, inhibition of TRPC5, calcium flux assay): 66 pM | inhibition of TRPC5 calcium influx (TRPC5 [2]; at concentrations of 1.4 nmol/L or higher): More than 80% | fold increase in activity (vs compound 6) (TRPC5 [2]; calcium flux, SAR): approximately 15 fold | Agonist JDIC-127 @10 μmol/L (5-HT2B; agonist mode): 0.67% | inhibition at 10 µM (5-HT2B; antagonist mode, read-out: Antagonist JDIC-127 @10 μmol/L): -0.45% | Agonist JDIC-127 @10 μmol/L (M1; M1, agonist mode): –0.83% | inhibition at 10 µM (M1; M1, antagonist mode, 10 μmol/L, read-out: Antagonist JDIC-127 @10 μmol/L): 0.22% | Agonist JDIC-127 @10 μmol/L (H2; H2, agonist mode): –6.71% | inhibition at 10 µM (H2; H2, antagonist mode, read-out: Antagonist JDIC-127 @10 μmol/L): 5.6% | Agonist JDIC-127 @10 μmol/L (β1; β1, agonist mode): –1.87% | inhibition at 10 µM (β1; β1, antagonist mode, 10 μmol/L, read-out: Antagonist JDIC-127 @10 μmol/L): 1.84% | inhibition at 1 µM (TRPC6): < 20% | inhibition at 1 µM (TRPC3): < 20% | Agonist JDIC-127 @10 μmol/L (A2A; agonist mode): –1.55% | Antagonist JDIC-127 @10 μmol/L (A2A; antagonist mode): –2.78%
